Test results published in patent US20230023559A1, “ARYLMETHYLENE HETEROCYCLIC COMPOUNDS AS KV1.3 POTASSIUM SHAKER CHANNEL BLOCKERS” (D. E. Shaw Research, LLC, priority 2019, published 2023).

Assays:
[1] = target: T1, Kv1.3 potassium channel (Homo sapiens, UniProt P22001); assay: Kv1.3 potassium channel blocker activity, automated whole-cell patch clamp (Patchliner); format: cell-based; conditions: CHO-K1 cells stably expressing Kv1.3; whole cell current inhibition; read-out: Kv1.3_IC50
T1 construct: expressed in transfected cells
T1 sequence (P22001 whole entry): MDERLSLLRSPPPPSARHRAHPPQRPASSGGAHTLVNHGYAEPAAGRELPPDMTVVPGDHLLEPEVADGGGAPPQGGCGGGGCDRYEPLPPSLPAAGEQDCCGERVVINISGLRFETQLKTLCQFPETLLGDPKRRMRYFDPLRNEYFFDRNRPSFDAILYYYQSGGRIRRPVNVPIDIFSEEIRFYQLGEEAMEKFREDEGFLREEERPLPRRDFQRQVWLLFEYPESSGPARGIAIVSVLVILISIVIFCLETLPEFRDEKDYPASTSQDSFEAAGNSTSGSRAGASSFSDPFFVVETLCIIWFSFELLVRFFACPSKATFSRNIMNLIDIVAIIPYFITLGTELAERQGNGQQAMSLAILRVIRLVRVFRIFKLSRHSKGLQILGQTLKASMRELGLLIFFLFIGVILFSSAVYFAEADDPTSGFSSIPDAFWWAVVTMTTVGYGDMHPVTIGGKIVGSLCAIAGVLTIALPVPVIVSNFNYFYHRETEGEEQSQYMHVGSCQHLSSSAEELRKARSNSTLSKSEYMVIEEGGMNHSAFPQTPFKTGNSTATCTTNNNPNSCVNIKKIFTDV
In short: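 CHO-K1 cells stably expressing Kv1.3, automated whole-cell patch clamp. Currents evoked by 100 ms steps from −90 mV holding to +40 mV at 0.1 Hz, sampled at 10 kHz unfiltered, P/4 leak subtraction; peak current inhibition measured, compound incubation ≤10 s between pulse trains.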

[2] = target: hERG channel (Homo sapiens, UniProt Q12809); assay: hERG electrophysiology, automated whole-cell patch clamp (Patchliner)
Sequence of hERG channel (Q12809 whole entry): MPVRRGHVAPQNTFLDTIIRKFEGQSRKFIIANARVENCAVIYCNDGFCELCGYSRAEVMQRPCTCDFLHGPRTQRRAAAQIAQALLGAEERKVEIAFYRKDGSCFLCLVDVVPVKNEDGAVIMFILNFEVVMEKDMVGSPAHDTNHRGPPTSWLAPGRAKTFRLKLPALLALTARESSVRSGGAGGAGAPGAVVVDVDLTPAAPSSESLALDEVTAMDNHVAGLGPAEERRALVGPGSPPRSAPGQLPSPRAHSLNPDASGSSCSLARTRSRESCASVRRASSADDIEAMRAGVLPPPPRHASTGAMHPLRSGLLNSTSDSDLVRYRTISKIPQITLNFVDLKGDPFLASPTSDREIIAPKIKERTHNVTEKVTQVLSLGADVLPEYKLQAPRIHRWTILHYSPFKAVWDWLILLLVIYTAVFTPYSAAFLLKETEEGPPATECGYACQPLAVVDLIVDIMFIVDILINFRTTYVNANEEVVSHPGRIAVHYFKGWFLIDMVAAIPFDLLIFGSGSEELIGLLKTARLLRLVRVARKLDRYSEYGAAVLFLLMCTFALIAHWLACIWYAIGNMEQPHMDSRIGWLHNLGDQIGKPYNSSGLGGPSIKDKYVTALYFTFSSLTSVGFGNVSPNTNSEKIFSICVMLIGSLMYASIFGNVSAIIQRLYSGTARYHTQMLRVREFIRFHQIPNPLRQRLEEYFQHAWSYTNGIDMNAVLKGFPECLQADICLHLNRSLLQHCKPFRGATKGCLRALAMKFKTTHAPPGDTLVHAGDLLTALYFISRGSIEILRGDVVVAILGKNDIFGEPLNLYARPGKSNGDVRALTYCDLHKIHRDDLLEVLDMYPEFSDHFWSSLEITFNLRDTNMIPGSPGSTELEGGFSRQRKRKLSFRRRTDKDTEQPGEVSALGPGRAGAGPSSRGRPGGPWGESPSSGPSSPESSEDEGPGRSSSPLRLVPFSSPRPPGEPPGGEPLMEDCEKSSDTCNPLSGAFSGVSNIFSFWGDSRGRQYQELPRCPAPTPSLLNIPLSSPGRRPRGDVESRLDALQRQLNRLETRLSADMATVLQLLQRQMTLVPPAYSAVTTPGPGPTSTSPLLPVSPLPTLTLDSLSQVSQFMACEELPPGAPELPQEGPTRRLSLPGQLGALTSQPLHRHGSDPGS
Description: CHO-K1 cells stably expressing hERG were grown in Ham's F-12 Medium with Glutamine containing 10% heat-inactivated FBS, 1% Penicillin/Streptomycin, Hygromycin (100 μg/ml) and G418 (100 μg/ml). Cells were grown in culture flasks at 37° C. in a 5% CO2-humidified incubator.
The cells were bathed in an extracellular solution containing 140 mM NaCl, 4 mM KCl, 2 mM CaCl2), 1 mM MgCl2, 5 mM Glucose, 10 mM HEPES; pH adjusted to 7.4 with NaOH; 295-305 mOsm. The internal solution contained 50 mM KCl, 10 mM NaCl, 60 mM KF, 20 mM EGTA, 10 mM HEPES; pH adjusted to 7.2 with KOH; 285 mOsm. All compounds were dissolved in DMSO at 30 mM. Compound stock solutions were freshly diluted with external solution to concentrations of 30 nM, 100 nM, 300 nM, 1 μM, 3 μM, 10 μM, 30 μM and 100 μM. The highest content of DMSO (0.3%) was present in 100 μM.
The voltage protocol (see Table B) was designed to simulate voltage changes during a cardiac action potential with a 300 ms depolarization to +20 mV (analogous to the plateau phase of the cardiac action potential), a repolarization for 300 ms to −50 mV (inducing a tail current) and a final step to the holding potential of −80 mV. The pulse frequency was 0.3 Hz. Control (compound-free) and compound pulse trains for each compound concentration applied contained 70 pulses.
Whole cell current recordings and compound application were enabled by means of an automated patch clamp platform Patchliner (Nanion). EPC 10 patch clamp amplifier (HEKA) along with Patchmaster software (HEKA Elektronik Dr. Schulze GmbH) was used for data acquisition. Data were sampled at 10 kHz without filtering. Increasing compound concentrations were applied consecutively to the same cell without washouts in between.
AUC and PEAK values were obtained with Patchmaster (HEKA Elektronik Dr. Schulze GmbH). To determine IC50 the last single pulse in the pulse train corresponding to a given compound concentration was used. Obtained AUC and PEAK values in the presence of compound were normalized to control values in the absence of compound. Using Origin (OridinLab), IC50 was derived from data fit to Hill equation: Icompound/Icontrol=(100−A)/(1+([compound]/IC50)nH)+A, where IC50 is the concentration at which current inhibition is half-maximal, [compound] is the applied compound concentration, A is the fraction of current that is not blocked and nH is the Hill coefficient.

| IC50 [1] [µM] | Structure (SMILES) | IC50 [2] [µM] |
| --- | --- | --- |
| < 10 | N[C@@H](c1cc(Cl)c(Cl)cc1O)C1CCN(C(=O)c2ccn[nH]2)CC1 [Compound 136, 2-[(R)-amino[1-(1H-pyrazole-3-carbonyl)piperidin-4-yl]methyl]-4,5-dichlorophenol trifluoroacetic acid] | > 30 |
| < 0.5 | NC(c1cc(Cl)c(Cl)cc1O)C1CCN(C(=O)CO)CC1 (stereo not shown) [Compound 47, 1-[4-[amino(4,5-dichloro-2-hydroxyphenyl)methyl]piperidin-1-yl]-2-hydroxyethan-1-one] | > 30 |
| < 10 | N[C@@H](c1cc(Cl)c(Cl)cc1O)C1CCN(C(=O)C2(O)COC2)CC1 [Compound 143, 3-[4-[(R)-amino(4,5-dichloro-2-hydroxyphenyl)methyl]piperidine-1-carbonyl]oxetan-3-ol] | > 30 |
| < 0.5 | NC(=O)N1CCC(C(N)c2cc(Cl)c(Cl)cc2O)CC1 (stereo not shown) [Compound 53, 4-[amino(4,5-dichloro-2-hydroxyphenyl)methyl]piperidine-1-carboxamide] | > 30 |
| < 0.5 | N[C@@H](c1cc(Cl)c(Cl)cc1O)C1CCN(C(=O)[C@@H]2CNC(=O)C2)CC1 (single isomer, unassigned; isomer 1) [Compound 296] | > 30 |
| < 10 | C[C@@H](O)[C@H](N)C(=O)N1CCC([C@@H](N)c2cc(Cl)c(Cl)cc2O)CC1 [Compound 174, (2S,3R)-2-amino-1-[4-[(R)-amino(4,5-dichloro-2-hydroxyphenyl)methyl]piperidin-1-yl]-3-hydroxybutan-1-one bis (trifluoroacetic acid)] | > 30 |
| < 0.5 | N[C@@H](c1cc(Cl)c(Cl)cc1O)C1CCN(C(=O)[C@@H]2CCNC2)CC1 (single isomer, unassigned) [Compound 80] | > 30 |
| < 0.5 | N[C@@H](c1cc(Cl)c(Cl)cc1O)C1CCN(C(=O)N2CCNCC2)CC1 [Compound 141, 2-[(R)-amino[1-(piperazine-1-carbonyl)piperidin-4-yl]methyl]-4,5-dichlorophenol Trifluoroacetic Acid] | > 30 |
| < 0.5 | N[C@@H](c1cc(Cl)c(Cl)cc1O)C1CCN(C(=O)N2CC(O)(CO)C2)CC1 [Compound 220, 1-[4-[(R)-amino(4,5-dichloro-2-hydroxyphenyl)methyl]piperidine-1-carbonyl]-3-(hydroxymethyl)azetidin-3-ol] | > 30 |
| < 0.5 | C[C@H](N)C(=O)N1CCC(C(N)c2cc(Cl)c(Cl)cc2O)CC1 (stereo partly drawn) [Compound 50, (2S)-2-amino-1-(4-(amino(4,5-dichloro-2-hydroxyphenyl)methyl)piperidin-1-yl)propan-1-one trifluoroacetic acid] | > 30 |
| < 10 | CC(C)C(=O)N1CCC(C(N)c2cc(Cl)c(Cl)cc2O)CC1 (stereo not shown) [Compound 43, 1-[4-[amino(4,5-dichloro-2-hydroxyphenyl)methyl]piperidin-1-yl]-2-methylpropan-1-one Trifluoroacetic Acid] | < 30 |
| < 10 | CC(O)(CO)C(=O)N1CCC([C@@H](N)c2cc(Cl)c(Cl)cc2O)CC1 (stereo partly drawn) [Compound 201, 1-[4-[(R)-amino(4,5-dichloro-2-hydroxyphenyl)methyl]piperidin-1-yl]-2,3-dihydroxy-2-methylpropan-1-one Trifluoroacetic Acid] | > 30 |
| < 0.5 | N[C@@H](c1cc(Cl)c(Cl)cc1O)C1CCN(C(=O)C2(F)CNC2)CC1 [Compound 114, 2-[(R)-amino[1-(3-fluoroazetidine-3-carbonyl)piperidin-4-yl]methyl]-4,5-dichlorophenol] | > 30 |
| < 0.5 | N[C@@H](CO)C(=O)N1CCC([C@@H](N)c2cc(Cl)c(Cl)cc2O)CC1 [Compound 167, (2S)-2-amino-1-[4-[(R)-amino(4,5-dichloro-2-hydroxyphenyl)methyl]piperidin-1-yl]-3-hydroxypropan-1-one] | > 30 |
| < 10 | C[C@@H](N)C(=O)N1CCC([C@H](N)c2cc(Cl)c(Cl)cc2O)CC1 (single isomer, unassigned) [Compound 87] |  |

Second part, the compound before the results:

| Structure (SMILES) | IC50 [1] [µM] | IC50 [2] [µM] |
| --- | --- | --- |
| N[C@@H](c1cc(Cl)c(Cl)cc1O)C1CCN(c2ccn[nH]2)CC1 [Compound 154, 2-[(R)-amino[1-(1H-pyrazol-3-yl)piperidin-4-yl]methyl]-4,5-dichlorophenol Trifluoroacetic Acid] | < 10 | > 30 |
| N[C@H](c1c(O)cc(Cl)c(Cl)c1Cl)C1CCNCC1 (single isomer, unassigned) [Compound 60, Trifluoroacetic Acid] | < 30 | > 30 |
| Oc1cc(Cl)c(Cl)cc1C(O)C1CCNCC1 (stereo not shown) [Compound 2, 4,5-dichloro-2-[hydroxy(piperidin-4-yl)methyl]phenol] | < 10 | > 30 |
| N[C@@H](c1cc(Cl)c(Cl)cc1O)C1CCN(S(=O)(=O)c2cn[nH]c2)CC1 [Compound 158, 2-[(R)-amino[1-(1H-pyrazole-4-sulfonyl)piperidin-4-yl]methyl]-4,5-dichlorophenol Trifluoroacetic Acid] | < 10 | < 30 |
| N[C@@H](c1cc(Cl)c(Cl)cc1O)C1CCN(S(=O)(=O)CCO)CC1 [Compound 145, (R)-2-(amino(1-((2-hydroxyethyl)sulfonyl)piperidin-4-yl)methyl)-4,5-dichlorophenol Trifluoroacetic Acid] | < 0.5 | < 30 |
| NC(c1c(O)ccc2ccccc12)C1CCNCC1 (stereo not shown) [Compound 34, 1-(amino(piperidin-4-yl)methyl)naphthalen-2-ol Trifluoroacetic Acid] | < 30 | > 30 |
| N[C@@H](c1cc(Cl)c(C(F)(F)F)cc1O)C1CCN(C(=O)[C@H](O)CO)CC1 [Compound 284, (2R)-1-[4-[(R)-amino[5-chloro-2-hydroxy-4-(trifluoromethyl)phenyl]methyl]piperidin-1-yl]-2,3-dihydroxypropan-1-one] | < 10 | > 30 |
| N[C@@H](c1cc(Cl)c(Cl)cc1O)[C@@H]1CCC(=O)NC1 (single isomer, unassigned; diastereoisomer 2) [Compound 39, 5-(amino(4,5-dichloro-2-hydroxyphenyl)methyl)piperidin-2-one Diastereoisomer 2] | < 10 | > 30 |
| Cc1cc(O)c([C@H](N)C2CCN(C(=O)c3ccc(=O)n(C)c3)CC2)cc1Cl [Compound 239, 5-[4-[(R)-amino (5-chloro-2-hydroxy-4-methylphenyl)methyl]piperidine-1-carbonyl]-1-methylpyridin-2(1H)-one trifluoroacetic acid] | < 0.5 | > 30 |
| COCCS(=O)(=O)N1CCC([C@@H](N)c2cc(Cl)c(Cl)cc2O)CC1 [Compound 132, 2-[(R)-amino[1-(2-methoxyethanesulfonyl)piperidin-4-yl]methyl]-4,5-dichlorophenol Trifluoroacetic Acid] | < 10 | < 30 |
| Cc1cc(O)c([C@H](N)C2CCN(C(=O)c3ccc4nncn4c3)CC2)cc1Cl [Compound 242, (R)-[1,2,4]triazolo[4,3-a]pyridin-6-yl(4-(amino(5-chloro-2-hydroxy-4-methylphenyl)methyl)piperidin-1-yl)methanone trifluoroacetic acid] | < 0.5 | > 30 |
| N[C@@H](c1cc(Cl)c(Cl)cc1O)C1CCN(C(=O)Cc2cn[nH]c2)CC1 [Compound 162, 1-[4-[(R)-amino(4,5-dichloro-2-hydroxyphenyl)methyl]piperidin-1-yl]-2-(1H-pyrazol-4-yl)ethan-1-one trifluoroacetic acid] | < 0.5 | > 30 |
| Cc1cc(O)c([C@H](N)C2CCN(C(=O)c3ccc(CO)nc3)CC2)cc1Cl [Compound 248, 2-[(R)-amino([1-[6-(hydroxymethyl)pyridine-3-carbonyl]piperidin-4-yl])methyl]-4-chloro-5-methylphenol] | < 0.5 | > 30 |
| N[C@@H](c1cc(Cl)c(Cl)cc1O)C1CCN(c2ccc(O)nc2)CC1 [Compound 302, (R)-5-(4-(amino(4,5-dichloro-2-hydroxyphenyl)methyl)piperidin-1-yl)pyridin-2-ol] | < 10 | > 30 |
| NC(c1cc(Cl)c(Cl)cc1O)C1CC2CCC(C1)N2 (stereo not shown) [Compound 42, 2-[amino(8-azabicyclo[3.2.1]octan-3-yl)methyl]-4,5-dichlorophenol Trifluoroacetic Acid] | < 10 | > 30 |
| CC(C)(O)CN1CCC(C(N)c2cc(Cl)c(Cl)cc2O)CC1 (stereo not shown) [Compound 56, 2-[amino[1-(2-hydroxy-2-methylpropyl)piperidin-4-yl]methyl]-4,5-dichlorophenol Trifluoroacetic Acid] | < 10 | < 30 |
| N[C@@H](c1cc(Cl)c(Cl)cc1O)C1CCN(C(=O)c2ccc(=O)[nH]n2)CC1 [Compound 253, 6-[4-[(R)-amino(4,5-dichloro-2-hydroxyphenyl)methyl]piperidine-1-carbonyl]-2H-pyridazin-3-one trifluoroacetic acid] | < 0.5 |  |
| N[C@H](c1cc(Cl)c(Cl)cc1O)C1CC2CC1CN2C(=O)[C@H](O)CO (stereo partly drawn) [Compound 316, (2R)-1-(5-((S)-amino(4,5-dichloro-2-hydroxyphenyl)methyl)-2-azabicyclo[2.2.1]heptan-2-yl)-2,3-dihydroxypropan-1-one Trifluoroacetic Acid] | < 10 |  |
| Cc1cc(O)c([C@H](N)C2CCN(C(=O)c3ccc4c(c3)NC(=O)CC4)CC2)cc1Cl [Compound 273, 7-[4-[(R)-amino (5-chloro-2-hydroxy-4-methylphenyl)methyl]piperidine-1-carbonyl]-3,4-dihydro-1H-quinolin-2-one trifluoroacetic acid] | < 10 |  |
